Read-outs that look alike come from different tables or passages of the source. Numbered stars: 1 amine (or outer) side, 2 acyl side, 3 side chain; on linkers, the order of the positions; unused ones are H or OH. Bridge positions count the residues as written; N and C are the ends. Square brackets hold non-standard residues; d marks the D form. Peptide text beside a SMILES is read from it. * marks the point of attachment. Tridecanoyl(12-Me) = CC(C)CCCCCCCCCCC(=O)*; X1 = NC(=O)CC(O)C(N[*:1])C(=O)[*:2]; NMeF = CN[CH](Cc1ccccc1)C(=O)O; NMeN = CN[CH](CC(N)=O)C(=O)O; X2 = CCC(C)CCCCCCCCCCC(=O)*
Assays:
[1] = Solubility in water or DMSO
Rhizoctonia solani = test: Treatment of sheath blight on rice (Table 11); conditions: 1 d preventive, 400 L/ha
Pyricularia oryzae = assay type: in vivo; conditions: 1 d preventive, 400 L/ha
Fusarium culmorum = test: Seed treatment, soilborne Fusarium culmorum in wheat under semi-field conditions (Example 4.1B); assay type: in vivo; conditions: Celest FS025, 5 g ai per 100 kg seeds; plant emergence vs infected control
Aphanomyces cochlioides = test: Seed treatment, soilborne Aphanomyces cochlioides in sugar beet in the greenhouse (Example 4.3); assay type: in vivo, Aphanomyces cochlioides strain K-9164; conditions: Tachigaren WS070; damping off vs infected control
Oculimacula yallundae = test: Treatment of eyespot on wheat (Table 15); assay type: in vivo; conditions: 1 d preventive, 200 L/ha, 450 g/ha
Mycosphaerella arachidis = test: Treatment of early leaf spots on groundnut (Table 13); assay type: in vivo; conditions: 1 d preventive, 400 L/ha, 11DAI
Zymoseptoria tritici [2] = test: Preventive and curative treatment of Zymoseptoria tritici on wheat (Table 8); assay type: in vivo; conditions: 200 L/ha, 17DAI
[3] = system: Blumeria graminis f.sp. tritici; test: Treatment of powdery mildew on wheat (Table 12); assay type: in vivo; conditions: 1 d preventive, 200 L/ha, 27 g/ha, 7DAI
Parastagonospora nodorum = test: Treatment of glume blotch on wheat (Table 14); assay type: in vivo; conditions: 1 d preventive, 200 L/ha, 7DAI
[4] = system: Colletotrichum lagenarium; test: Treatment of anthracnose on cucumber (Table 13); assay type: in vivo; conditions: 1 d preventive, 400 L/ha, 5DAI
Puccinia recondita [5] = test: Preventive and curative treatment of Puccinia recondita on wheat (Table 8); assay type: in vivo; conditions: 200 L/ha
Ramularia collo-cygni = test: Treatment of ramularia leaf spot on barley (Table 14); assay type: in vivo; conditions: 1 d preventive, 200 L/ha, 20DAI
Puccinia recondita [6] = test: Treatment of Puccinia recondita on wheat beyond the treated area (Table 16); assay type: in vivo; conditions: 188 ppm, 11DAI
Rhynchosporium secalis = test: Treatment of scald on barley (Table 14); assay type: in vivo; conditions: 1 d preventive, 200 L/ha, 15DAI
Zymoseptoria tritici [7] = test: Treatment of Zymoseptoria tritici on wheat beyond the treated area (Table 16); assay type: in vivo; conditions: 188 ppm, 17DAI
Puccinia striiformis = test: Treatment of wheat infected with yellow rust Puccinia striiformis (Table 9); assay type: in vivo; conditions: 200 L/ha
Alternaria solani = test: Treatment of early blight on tomato (Table 13); assay type: in vivo; conditions: 1 d preventive, 400 L/ha, 4DAI
[8] = dmso, organic solvent or mixture

For `CCC(C)CCCCCCCCCCC(=O)NC1C(=O)NC(CC(=O)O)C(=O)NC(C(O)CC(N)=O)C(=O)NC(CO)C(=O)N(C)C(CC(N)=O)C(=O)N(C)C(Cc2ccccc2)C(=O)NC(CCC(N)=O)C(=O)NC(CCC(=O)O)C(=O)OC1C` (stereo not drawn) [Formula II (b) Lipopeptide 1218] (X2-TD[X1]S[NMeN][NMeF]QE; ester 1-C; configuration not given here), the solubility [1, 8] was > 10000 µg/mL.

With `CO/C=C(/C(=O)OC)c1ccccc1Oc1cc(Oc2ccccc2C#N)ncn1` [Azoxystrobin] the “disease symptom reduction (%) vs. Untreated” value (Rhizoctonia solani; 3 g/ha) was 62%, the “disease symptom reduction (%) vs. Untreated” value (Rhizoctonia solani; 9 g/ha) was 86% and the “disease symptom reduction (%) vs. Untreated” value (Rhizoctonia solani; 28 g/ha) was 81%. The “disease symptom reduction (%) vs. Untreated” value (Rhizoctonia solani; 83 g/ha) was 86%, the “disease symptom reduction (%) vs. Untreated” value (Pyricularia oryzae; 3 g/ha) was 92% and the “disease symptom reduction (%) vs. Untreated” value (Pyricularia oryzae; 9 g/ha) was 85%. The “disease symptom reduction (%) vs. Untreated” value (Pyricularia oryzae; 28 g/ha) was 96% and the “disease symptom reduction (%) vs. Untreated” value (Pyricularia oryzae; 83 g/ha) was 92%.

With `CCCC1COC(Cn2cncn2)(c2ccc(Cl)cc2Cl)O1` (stereo not drawn) [Propiconazole] the “disease symptom reduction (%) vs. Untreated” value (Pyricularia oryzae; 5 g/ha) was 17%, the “disease symptom reduction (%) vs. Untreated” value (Pyricularia oryzae; 14 g/ha) was 38% and the “disease symptom reduction (%) vs. Untreated” value (Pyricularia oryzae; 42 g/ha) was 79%. The “disease symptom reduction (%) vs. Untreated” value (Pyricularia oryzae; 125 g/ha) was 92%.

For `CC(=O)NC1C(OCC(OC2OC(CO)C(O)C(O)C2O)C2OC(OC3C(O)C(CO)OC(OC4(CO)OC(C(O)CO)C(O)C4OC4OC(CO)C(O)C(O)C4O)C3O)C(O)C(O)C2OC2OC(C(O)CO)C(O)C(O)C2OC2OCC(OC(N)=O)C(O)C2O)OC(CO)C(O)C1O` (stereo not drawn) [compound I], the solubility [1, 8] was > 9770 µg/mL.

With `N#Cc1c[nH]cc1-c1cccc2c1OC(F)(F)O2` [Fludioxonil] the “activity (%)” value (Fusarium culmorum) was 93%.

With `Cc1cc(O)no1` [Hymexazol] the “activity (%)” value (Aphanomyces cochlioides) was 74%.

For `CC(C)CCCCCCCCCCC(=O)NC1C(=O)NC(CC(=O)O)C(=O)NC(C(O)CC(N)=O)C(=O)NC(CO)C(=O)N(C)C(CC(N)=O)C(=O)N(C)C(Cc2ccccc2)C(=O)NC(CCC(N)=O)C(=O)NC(CCC(=O)O)C(=O)OC1C` (stereo not drawn) [Formula II (a) Lipopeptide 1204] ({Tridecanoyl(12-Me)}-TD[X1]S[NMeN][NMeF]QE; ester 1-C; configuration not given here), the solubility [1, 8] was > 10000 µg/mL and the solubility ([1]; water, pH 2.08, water) was 21.4 µg/mL.

For `Cc1cc(C2CC2)nc(Nc2ccccc2)n1` [Cyprodinil], the “disease symptom reduction (%) vs. Untreated” value (Oculimacula yallundae) was 56%.

For `Cn1cc(C(=O)Nc2cccc3c2C2CCC3C2=C(Cl)Cl)c(C(F)F)n1` (stereo not drawn) [SOLATENOL], the “disease symptom reduction (%) vs. Untreated” value (Mycosphaerella arachidis; 1 g/ha) was 56%, the “disease symptom reduction (%) vs. Untreated” value (Mycosphaerella arachidis; 2 g/ha) was 67% and the “disease symptom reduction (%) vs. Untreated” value (Mycosphaerella arachidis; 6 g/ha) was 89%. For the same molecule, the “disease symptom reduction (%) vs. Untreated” value (Mycosphaerella arachidis; 20 g/ha) was 100%, the “disease symptom reduction (%) vs. Untreated” value (Mycosphaerella arachidis; 60 g/ha) was 98% and the “disease symptom reduction (%) vs. Untreated” value (Zymoseptoria tritici [2]; 1 d preventive, 1 g/ha) was 0%. For the same molecule, the “disease symptom reduction (%) vs. Untreated” value (Zymoseptoria tritici [2]; 1 d preventive, 3 g/ha) was 0%, the “disease symptom reduction (%) vs. Untreated” value (Zymoseptoria tritici [2]; 1 d preventive, 9 g/ha) was 70% and the “disease symptom reduction (%) vs. Untreated” value (Zymoseptoria tritici [2]; 1 d preventive, 27 g/ha) was 97%. For the same molecule, the “disease symptom reduction (%) vs. Untreated” value (Zymoseptoria tritici [2]; 3 d curative, 1 g/ha) was 4%, the “disease symptom reduction (%) vs. Untreated” value (Zymoseptoria tritici [2]; 3 d curative, 3 g/ha) was 0% and the “disease symptom reduction (%) vs. Untreated” value (Zymoseptoria tritici [2]; 3 d curative, 9 g/ha) was 61%. For the same molecule, the “disease symptom reduction (%) vs. Untreated” value (Zymoseptoria tritici [2]; 3 d curative, 27 g/ha) was 82%, the “disease symptom reduction (%) vs. Untreated” value [3] was 54% and the “disease symptom reduction (%) vs. Untreated” value (Parastagonospora nodorum; 4 g/ha) was 16%. For the same molecule, the “disease symptom reduction (%) vs. Untreated” value (Parastagonospora nodorum; 12 g/ha) was 44%, the “disease symptom reduction (%) vs. Untreated” value (Parastagonospora nodorum; 40 g/ha) was 81% and the “disease symptom reduction (%) vs. Untreated” value (Parastagonospora nodorum; 120 g/ha) was 85%. For the same molecule, the “disease symptom reduction (%) vs. Untreated” value ([4]; 1 g/ha) was 53%, the “disease symptom reduction (%) vs. Untreated” value ([4]; 2 g/ha) was 67% and the “disease symptom reduction (%) vs. Untreated” value ([4]; 6 g/ha) was 60%. For the same molecule, the “disease symptom reduction (%) vs. Untreated” value ([4]; 20 g/ha) was 90%, the “disease symptom reduction (%) vs. Untreated” value ([4]; 60 g/ha) was 100% and the “disease symptom reduction (%) vs. Untreated” value (Puccinia recondita [5]; 1 d preventive, 1 g/ha, 10DAI) was 49%. For the same molecule, the “disease symptom reduction (%) vs. Untreated” value (Puccinia recondita [5]; 1 d preventive, 3 g/ha, 10DAI) was 88%, the “disease symptom reduction (%) vs. Untreated” value (Puccinia recondita [5]; 1 d preventive, 9 g/ha, 10DAI) was 96% and the “disease symptom reduction (%) vs. Untreated” value (Puccinia recondita [5]; 1 d preventive, 27 g/ha, 10DAI) was 99%. For the same molecule, the “disease symptom reduction (%) vs. Untreated” value (Puccinia recondita [5]; 3 d curative, 1 g/ha, 11DAI) was 47%, the “disease symptom reduction (%) vs. Untreated” value (Puccinia recondita [5]; 3 d curative, 3 g/ha, 11DAI) was 58% and the “disease symptom reduction (%) vs. Untreated” value (Puccinia recondita [5]; 3 d curative, 9 g/ha, 11DAI) was 84%. The “disease symptom reduction (%) vs. Untreated” value (Puccinia recondita [5]; 3 d curative, 27 g/ha, 11DAI) was 92%, the “disease symptom reduction (%) vs. Untreated” value (Ramularia collo-cygni; 4 g/ha) was 6% and the “disease symptom reduction (%) vs. Untreated” value (Ramularia collo-cygni; 12 g/ha) was 32%. For the same molecule, the “disease symptom reduction (%) vs. Untreated” value (Ramularia collo-cygni; 40 g/ha) was 80%, the “disease symptom reduction (%) vs. Untreated” value (Ramularia collo-cygni; 120 g/ha) was 97% and the “disease cover on leaf (%)” value (Puccinia recondita [6]; leaf 1, not treated) was 80%. The “disease symptom reduction (%) vs. Untreated” value (Puccinia recondita [6]; leaf 1, not treated) was 11%, the “disease cover on leaf (%)” value (Puccinia recondita [6]; leaf 2 - base, not treated) was 81% and the “disease symptom reduction (%) vs. Untreated” value (Puccinia recondita [6]; leaf 2 - base, not treated) was 0%. The “disease cover on leaf (%)” value (Puccinia recondita [6]; leaf 2 - middle, treated) was 0%, the “disease symptom reduction (%) vs. Untreated” value (Puccinia recondita [6]; leaf 2 - middle, treated) was 100% and the “disease cover on leaf (%)” value (Puccinia recondita [6]; leaf 2 - tip, not treated) was 2%. The “disease symptom reduction (%) vs. Untreated” value (Puccinia recondita [6]; leaf 2 - tip, not treated) was 98%, the “disease cover on leaf (%)” value (Puccinia recondita [6]; leaf 3, not treated) was 31% and the “disease symptom reduction (%) vs. Untreated” value (Puccinia recondita [6]; leaf 3, not treated) was 16%. For the same molecule, the “disease symptom reduction (%) vs. Untreated” value (Rhynchosporium secalis; 4 g/ha) was 31%, the “disease symptom reduction (%) vs. Untreated” value (Rhynchosporium secalis; 12 g/ha) was 60% and the “disease symptom reduction (%) vs. Untreated” value (Rhynchosporium secalis; 40 g/ha) was 94%. The “disease symptom reduction (%) vs. Untreated” value (Rhynchosporium secalis; 120 g/ha) was 100%, the “disease cover on leaf (%)” value (Zymoseptoria tritici [7]; leaf 1, not treated) was 100% and the “disease symptom reduction (%) vs. Untreated” value (Zymoseptoria tritici [7]; leaf 1, not treated) was 0%. The “disease cover on leaf (%)” value (Zymoseptoria tritici [7]; leaf 2 - base, not treated) was 89%, the “disease symptom reduction (%) vs. Untreated” value (Zymoseptoria tritici [7]; leaf 2 - base, not treated) was 8% and the “disease cover on leaf (%)” value (Zymoseptoria tritici [7]; leaf 2 - middle, treated) was 0%. For the same molecule, the “disease symptom reduction (%) vs. Untreated” value (Zymoseptoria tritici [7]; leaf 2 - middle, treated) was 100%, the “disease cover on leaf (%)” value (Zymoseptoria tritici [7]; leaf 2 - tip, not treated) was 0% and the “disease symptom reduction (%) vs. Untreated” value (Zymoseptoria tritici [7]; leaf 2 - tip, not treated) was 100%. For the same molecule, the “disease cover on leaf (%)” value (Zymoseptoria tritici [7]; leaf 3, not treated) was 42%, the “disease symptom reduction (%) vs. Untreated” value (Zymoseptoria tritici [7]; leaf 3, not treated) was 15% and the “disease symptom reduction (%) vs. Untreated” value (Puccinia striiformis; 1 d preventive, 0.9 g/ha, 22DAI) was 0%. For the same molecule, the “disease symptom reduction (%) vs. Untreated” value (Puccinia striiformis; 1 d preventive, 2.8 g/ha, 22DAI) was 76%, the “disease symptom reduction (%) vs. Untreated” value (Puccinia striiformis; 1 d preventive, 8 g/ha, 22DAI) was 90% and the “disease symptom reduction (%) vs. Untreated” value (Puccinia striiformis; 1 d preventive, 25 g/ha, 22DAI) was 100%. For the same molecule, the “disease symptom reduction (%) vs. Untreated” value (Puccinia striiformis; 1 d preventive, 75 g/ha, 22DAI) was 100%, the “disease symptom reduction (%) vs. Untreated” value (Puccinia striiformis; 4 d curative, 0.9 g/ha, 21DAI) was 84% and the “disease symptom reduction (%) vs. Untreated” value (Puccinia striiformis; 4 d curative, 2.8 g/ha, 21DAI) was 93%. The “disease symptom reduction (%) vs. Untreated” value (Puccinia striiformis; 4 d curative, 8 g/ha, 21DAI) was 95%, the “disease symptom reduction (%) vs. Untreated” value (Puccinia striiformis; 4 d curative, 25 g/ha, 21DAI) was 99% and the “disease symptom reduction (%) vs. Untreated” value (Puccinia striiformis; 4 d curative, 75 g/ha, 21DAI) was 100%. For the same molecule, the “disease symptom reduction (%) vs. Untreated” value (Alternaria solani; 1 g/ha) was 40%, the “disease symptom reduction (%) vs. Untreated” value (Alternaria solani; 2 g/ha) was 53% and the “disease symptom reduction (%) vs. Untreated” value (Alternaria solani; 6 g/ha) was 80%. The “disease symptom reduction (%) vs. Untreated” value (Alternaria solani; 20 g/ha) was 90% and the “disease symptom reduction (%) vs. Untreated” value (Alternaria solani; 60 g/ha) was 100%.
